Source: patent US12441736B2, “KIF18A inhibitors” (AMGEN INC., priority 2018, dated 2025)

molecular target: T1, Recombinant human KIF18A (1-467 His-tagged) protein (Homo sapiens, UniProt Q8NI77); experiment: KIF18A Enzyme Assay: microtubule-stimulated ATPase activity (ADP-Glo); type: biochemical; conditions: 30 nM KIF18A, 30 μg/mL pig microtubules, 75 μM ATP, ADP-Glo luminescence
T1 construct: Recombinant human KIF18A (1-467 His-tagged) protein; His; made in house
Summary of the method: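 His-tagged human KIF18A (1-467, baculovirus), 30 nM, pre-incubated 15 min with compound in Tris pH 7.5 containing 30 μg/mL taxol-stabilised pig microtubules. ATP was then added at Km (75 μM) for 15 min at room temperature. ADP was measured by ADP-Glo luminescence, and IC50 was fitted by 4-parameter logistic over 22 points.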

T1 sequence (Q8NI77 1-467): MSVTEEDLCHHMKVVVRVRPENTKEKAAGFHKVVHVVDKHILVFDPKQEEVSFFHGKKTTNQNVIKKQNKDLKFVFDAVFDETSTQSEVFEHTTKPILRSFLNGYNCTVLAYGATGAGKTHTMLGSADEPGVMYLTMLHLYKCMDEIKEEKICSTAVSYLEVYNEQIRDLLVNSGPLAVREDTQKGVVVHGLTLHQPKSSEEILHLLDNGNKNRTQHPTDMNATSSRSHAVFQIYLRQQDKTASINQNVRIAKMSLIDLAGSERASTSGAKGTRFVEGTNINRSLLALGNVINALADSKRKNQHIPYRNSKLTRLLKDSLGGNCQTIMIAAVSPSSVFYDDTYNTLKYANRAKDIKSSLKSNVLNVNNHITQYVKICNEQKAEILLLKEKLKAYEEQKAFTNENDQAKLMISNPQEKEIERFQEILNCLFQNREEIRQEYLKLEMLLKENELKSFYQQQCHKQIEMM
T1 sequence (P02550 whole entry partner): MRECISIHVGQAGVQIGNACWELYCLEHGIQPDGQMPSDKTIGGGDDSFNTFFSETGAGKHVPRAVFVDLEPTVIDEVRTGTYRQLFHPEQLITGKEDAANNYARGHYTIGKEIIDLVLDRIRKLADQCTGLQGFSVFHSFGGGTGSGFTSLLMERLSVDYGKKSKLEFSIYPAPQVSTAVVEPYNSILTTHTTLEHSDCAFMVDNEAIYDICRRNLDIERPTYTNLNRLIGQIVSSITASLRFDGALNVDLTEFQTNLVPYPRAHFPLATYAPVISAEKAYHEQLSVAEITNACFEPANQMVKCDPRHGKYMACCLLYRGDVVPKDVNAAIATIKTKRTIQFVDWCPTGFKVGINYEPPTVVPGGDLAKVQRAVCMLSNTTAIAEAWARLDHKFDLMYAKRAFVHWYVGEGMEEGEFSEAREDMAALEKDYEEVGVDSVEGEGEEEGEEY
T1 sequence (P02554 whole entry partner): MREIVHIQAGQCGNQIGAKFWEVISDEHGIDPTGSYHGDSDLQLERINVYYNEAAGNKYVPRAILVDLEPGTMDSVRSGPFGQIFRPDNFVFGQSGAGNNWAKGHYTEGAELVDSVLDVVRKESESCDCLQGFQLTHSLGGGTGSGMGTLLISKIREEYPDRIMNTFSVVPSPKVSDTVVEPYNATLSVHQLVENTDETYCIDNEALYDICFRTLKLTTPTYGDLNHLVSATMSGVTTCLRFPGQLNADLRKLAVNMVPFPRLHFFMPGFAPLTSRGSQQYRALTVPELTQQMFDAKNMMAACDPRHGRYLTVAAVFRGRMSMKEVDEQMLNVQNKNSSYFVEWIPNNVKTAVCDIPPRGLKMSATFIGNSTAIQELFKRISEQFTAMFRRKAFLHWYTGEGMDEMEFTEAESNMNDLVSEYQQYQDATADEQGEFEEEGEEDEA

How did the IC50 turn out when `CC(C)(CO)Nc1ccc(C(=O)Nc2cccc(N3CC(O)CC3(C)C)n2)c(N2CCC3(CC2)CC3)n1` (stereo not shown) [Example 219, N-(6-(4-hydroxy-2,2-dimethylpyrrolidin-1-yl)pyridin-2-yl)-6-((1-hydroxy-2-methylpropan-2-yl)amino)-2-(6-azaspiro[2.5]octan-6-yl)nicotinamide] was run?
Its IC50 is 0.217 µM.

Which IC50 does the source give for `CC1(C)CC(=O)N(c2cccc(NC(=O)c3ncc(NC(C)(C)CO)nc3N3CCC4(CC3)CC4)n2)C1` [Example 107, 3-(6-azaspiro[2.5]oct-6-yl)-N-(6-(4,4-dimethyl-2-oxo-1-pyrrolidinyl)-2-pyridinyl)-5-((1-hydroxy-2-methyl-2-propanyl)amino)-2-pyrazinecarboxamide] here?
Its IC50 is 0.111 µM.

Which IC50 does the source give for `CC1(C)COC(=O)N1c1ccc(C(=O)Nc2cccc(N3CC[C@H](O)C3(C)C)n2)c(N2CCC3(CC2)CC3)n1` (stereo in doubt) [Example 220, 6-(4,4-dimethyl-2-oxooxazolidin-3-yl)-N-(6-(3-hydroxy-2,2-dimethylpyrrolidin-l-yl)pyridin-2-yl)-2-(6-azaspiro[2.5]octan-6-yl)nicotinamide] here?
The IC50 was 2.25 µM.

How did the IC50 turn out when `Cc1cc(NC(=O)c2ccc(NC(C)(C)CO)nc2N2CCC3(CC2)CC3)nc(N2CCOCC2)c1` [Example 155, 2-(6-azaspiro[2.5]octan-6-yl)-6-((1-hydroxy-2-methyl-2-propanyl)amino)-N-(4-methyl-6-(4-morpholinyl)-2-pyridinyl)-3-pyridinecarboxamide] was run?
Its IC50 is 0.071 µM.

Which IC50 does the source give for `C[C@@H]1CN(c2cccc(NC(=O)c3ccc(N4C(=O)OCC4(C)C)nc3N3CCC4(CC3)CC4)n2)CCO1` [Example 165, 2-(6-azaspiro[2.5]octan-6-yl)-6-(4,4-dimethyl-2-oxo-1,3-oxazolidin-3-yl)-N-(6-((2R)-2-methyl-4-morpholinyl)-2-pyridinyl)-3-pyridinecarboxamide] here?
Its IC50 is 0.663 µM.

For `CC(C)(CO)Nc1ccc(C(=O)Nc2cccc(C3CCOCC3)n2)c(N2CCC3(CC2)CC3)n1` [Example 146, 2-(6-azaspiro[2.5]oct-6-yl)-6-((1-hydroxy-2-methyl-2-propanyl)amino)-N-(6-(tetrahydro-2H-pyran-4-yl)-2-pyridinyl)-3-pyridinecarboxamide], which IC50 is on record?
The IC50 was 0.247 µM.

How did the IC50 turn out when `O=C(Nc1cccnc1N1CCC2(CC1)CC2)c1cccc(N2CCOCC2)n1` [Example 245, N-(2-(6-azaspiro[2.5]oct-6-yl)-3-pyridinyl)-6-(4-morpholinyl)-2-pyridinecarboxamide] was run?
Its IC50 is 0.861 µM.

With `CC(C)(C)NS(=O)(=O)c1cccc(NC(=O)c2ccc(C(C)(O)CO)nc2N2CCC3(CC2)CC3)n1` (stereo not shown) [Example 169, N-(6-(N-(tert-butyl)sulfamoyl)pyridin-2-yl)-6-(1,2-dihydroxypropan-2-yl)-2-(6-azaspiro[2.5]octan-6-yl)nicotinamide] as the compound, how does the IC50 read?
Its IC50 is 0.0893 µM.

`C[C@@H]1CN(c2cccc(NC(=O)c3ccc(NC(C)(C)CCO)nc3N3CCC4(CC3)CC4)n2)CCO1` [Example 214, 2-(6-azaspiro[2.5]octan-6-yl)-6-((4-hydroxy-2-methyl-2-butanyl)amino)-N-(6-((2R)-2-methyl-4-morpholinyl)-2-pyridinyl)-3-pyridinecarboxamide] was tested. Which IC50 did it give?
Its IC50 is 0.17 µM.

Which IC50 does the source give for `O=C(Nc1cccc(N2CCOCC2)n1)c1ccc([C@@](O)(CO)C(F)(F)F)nc1N1CCC2(CC1)CC2` (single isomer, unassigned) [Example 201] here?
The IC50 was 0.0769 µM.

How did the IC50 turn out when `CC(C)(C)NS(=O)(=O)c1cccc(NC(=O)c2ccc([C@](O)(CO)C(F)(F)F)nc2N2CCC3(CC2)CC3)n1` (single isomer, unassigned) [Example 176] was run?
The IC50 was 0.101 µM.

With `CC1(O)CN(c2ccc(C(=O)Nc3cccc(S(=O)(=O)NC(C)(C)C)n3)c(N3CCC4(CC3)CC4)n2)C1` [Example 159, 2-(6-azaspiro[2.5]octan-6-yl)-6-(3-hydroxy-3-methyl-1-azetidinyl)-N-(6-((2-methyl-2-propanyl)sulfamoyl)-2-pyridinyl)-3-pyridinecarboxamide] as the compound, how does the IC50 read?
Its IC50 is 0.169 µM.

Which IC50 does the source give for `CC(C)(C)NS(=O)(=O)c1cccc(NC(=O)c2ccc([C@](C)(O)C(F)(F)F)nc2N2CCC3(CC2)CC3)n1` (single isomer, unassigned) [Example 154] here?
Its IC50 is 0.105 µM.

How did the IC50 turn out when `CC(C)(C)NS(=O)(=O)c1cccc(NC(=O)c2ccc([C@@](O)(CO)C(F)(F)F)nc2N2CCC3(CC2)CC3)n1` (single isomer, unassigned) [Example 175] was run?
The IC50 was 0.116 µM.

How did the IC50 turn out when `Cc1cc(NC(=O)c2ncc(NC(C)(C)CO)nc2N2CCC3(CC2)CC3)nc(N2CCOCC2)c1` [Example 114, 3-(6-azaspiro[2.5]octan-6-yl)-5-((1-hydroxy-2-methyl-2-propanyl)amino)-N-(4-methyl-6-(4-morpholinyl)-2-pyridinyl)-2-pyrazinecarboxamide] was run?
Its IC50 is 0.178 µM.

Which IC50 does the source give for `C[C@H]1CN(c2cccc(NC(=O)c3ccc(NC(C)(C)CO)nc3N3CCC4(CC3)CC4)n2)[C@@H](C)CO1` (racemic) [Example 199, N-(6-((2S,5S)-2,5-dimethylmorpholino)pyridin-2-yl)-6-((1-hydroxy-2-methylpropan-2-yl)amino)-2-(6-azaspiro[2.5]octan-6-yl)nicotinamide] here?
Its IC50 is 0.243 µM.

`COCC(C)(C)Nc1ccc(C(=O)Nc2cccc(N3CCO[C@H](C)C3)n2)c(N2CCC3(CC2)CC3)n1` [Example 200, 2-(6-azaspiro[2.5]octan-6-yl)-6-((1-methoxy-2-methyl-2-propanyl)amino)-N-(6-((2R)-2-methyl-4-morpholinyl)-2-pyridinyl)-3-pyridinecarboxamide] was tested. Which IC50 did it give?
Its IC50 is 0.636 µM.

For `C[C@@H]1CN(c2cccc(NC(=O)c3ccc(NC(C)(C)CO)nc3N3CCC4(CC3)CC4)n2)CCO1` [Example 137, 2-(6-azaspiro[2.5]oct-6-yl)-6-((2-hydroxy-1,1-dimethylethyl)amino)-N-(6-((2R)-2-methyl-4-morpholinyl)-2-pyridinyl)-3-pyridinecarboxamide], which IC50 is on record?
The IC50 was 0.0669 µM.

For `CC1(O)CCCN(c2cccc(NC(=O)c3ccc(NC(C)(C)CO)nc3N3CCC4(CC3)CC4)n2)C1` (stereo not drawn) [Example 229, 6-((1-hydroxy-2-methylpropan-2-yl)amino)-N-(6-(3-hydroxy-3-methylpiperidin-l-yl)pyridin-2-yl)-2-(6-azaspiro[2.5]octan-6-yl)nicotinamide], which IC50 is on record?
Its IC50 is 0.137 µM.

How did the IC50 turn out when `CC(C)(CO)Nc1ccc(C(=O)Nc2cccc(N3CCC(O)C3)n2)c(N2CCC3(CC2)CC3)n1` (stereo not shown) [Example 131, 6-((1-hydroxy-2-methylpropan-2-yl)amino)-N-(6-(3-hydroxypyrrolidin-1-yl)pyridin-2-yl)-2-(6-azaspiro[2.5]octan-6-yl)nicotinamide] was run?
The IC50 was 0.294 µM.

For `CC(C)(CO)Nc1ccc(C(=O)Nc2cccc(N3CCN(C4CC4)CC3)n2)c(N2CCC3(CC2)CC3)n1` [Example 190, 2-(6-azaspiro[2.5]octan-6-yl)-N-(6-(4-cyclopropyl-1-piperazinyl)-2-pyridinyl)-6-((1-hydroxy-2-methyl-2-propanyl)amino)-3-pyridinecarboxamide], which IC50 is on record?
Its IC50 is 0.693 µM.

`CC(C)(CO)Nc1ccc(C(=O)Nc2cccc(N3C[C@H]4C[C@H]4C3)n2)c(N2CCC3(CC2)CC3)n1` [Example 136, N-(6-((1R,5S)-3-azabicyclo[3.1.0]hex-3-yl)-2-pyridinyl)-2-(6-azaspiro[2.5]oct-6-yl)-6-((2-hydroxy-1,1-dimethylethyl)amino)-3-pyridinecarboxamide] was tested. Which IC50 did it give?
The IC50 was 0.0719 µM.
